Columns and labels:
Type in all cases: physicochemical
[1] = solubility in water at room temperature; conditions: for Biopharmaceutics Classification System class: classified from low water solubility; for solubility: water, 24 °C, 22-26° C.
[2] = Particle Size Distribution (Malvern MasterSizer, laser diffraction)
Protocol: The mean particle size distribution is preferably obtained by laser diffraction. During a laser diffraction measurement a laser beam passes through a dispersed particulate sample and the angular variation in intensity of the scattered light is measured. Large particles scatter light at small angles relative to the laser beam and small particles scatter light at large angles. The angular scattering intensity data is then analyzed to calculate the size of the particles that created the scattering pattern using the Mie theory of light scattering. The particle size is reported as a volume equivalent sphere diameter. The folded optical design in the Mastersizer 3000 (from Malvern Panalytical), which was in particular used for the measurements provides a particle size measurement range from 10 nm up to 3.5 mm using a single optical measurement path. The Mastersizer 3000 uses a sequential combination of measurements with red and blue light sources to measure across the entire particle size range.
In some embodiments, the PSD (Particle Size Distribution) of the pharmaceutically active agent was measured with a Malvern MasterSizer 2000 or 3000 (in water as dispersion medium, stirrer speed 1500 rpm, Mie presentation) to give the following results (table 11). […] Some of the grinded batches are reported with the full PSD profile in FIG. 5: […]

[3] = impurity profile by HPLC prior and after gamma irradiation
[4] = FIG. 5 lower illustration, micronized sample, jet mill
[5] = FIG. 5 middle illustration, manual grinded sample
[6] = FIG. 5 upper illustration, manual grinded sample
[7] = Gamma irradiated at 49.6 KGy under dry ice

O=C(NCc1cccc(S(F)(F)(F)(F)F)c1)[C@H]1C[C@@H]2CC[C@H]1C2 (racemic) [Compound A, (1SR,2SR,4RS)-N-(3-(pentafluoro-λ6-sulfanyl)benzyl)bicyclo[2.2.1]heptane-2-carboxamide]
Biopharmaceutics Classification System class [1]: BCS class II
solubility [1]: < 1000 µg/mL

O=C(NCc1cccc(S(F)(F)(F)(F)F)c1)[C@H]1C[C@@H]2CC[C@H]1C2 [Compound B, (1S,2S,4R)-N-(3-(pentafluoro-λ6-sulfaneyl)benzyl)bicyclo[2.2.1]heptane-2-carboxamide]
d10 [2, 4]: 3.4 microns
d50 [2, 4]: 12.4 microns
d90 [2, 4]: 26.3 microns
d10 [2, 5]: 6.5 microns
d50 [2, 5]: 32 microns
d90 [2, 5]: 72 microns
d10 [2, 6]: 4.4 microns
d50 [2, 6]: 18 microns
d90 [2, 6]: 44 microns
PSD of the active ingredient in the non-aqueous gel composition ([2]; in the gel versus after grinding): remained unchanged
*Imp. 8. rel.tR = 0.95 ([3]; Gamma irradiated at 49.6 KGy): 3.29 Area %
Imp. 1. rel.tR = 0.22 ([3]; Gamma irradiated at 49.6 KGy): 0.11 Area %
Imp. 2. rel.tR = 0.37 ([3]; Gamma irradiated at 49.6 KGy): 0.11 Area %
Imp. 3. rel.tR = 0.48 ([3]; Gamma irradiated at 49.6 KGy): 0.24 Area %
Imp. 4. rel.tR = 0.52 ([3]; Gamma irradiated at 49.6 KGy): 0.12 Area %
Imp. 5. rel.tR = 0.54 ([3]; Gamma irradiated at 49.6 KGy): 0.08 Area %
Imp. 6. rel.tR = 0.58 ([3]; Gamma irradiated at 49.6 KGy): 0.14 Area %
Imp. 7. rel.tR = 0.71 ([3]; Gamma irradiated at 49.6 KGy): 0.39 Area %
Imp. 9. rel.tR = 1.27 ([3]; Gamma irradiated at 49.6 KGy): 0.32 Area %
Imp. 10. rel.tR = 1.80 ([3]; Gamma irradiated at 49.6 KGy): 0.06 Area %
Sum of impurities ([3]; Gamma irradiated at 49.6 KGy): 4.86 Area %
impurity Increase compared to initial ([3]; Gamma irradiated at 49.6 KGy): +1.25 Area %
*Imp. 8. rel.tR = 0.95 [3, 7]: 3.35 Area %
Imp. 1. rel.tR = 0.22 [3, 7]: 0.23 Area %
Imp. 2. rel.tR = 0.37 [3, 7]: 0.03 Area %
Imp. 3. rel.tR = 0.48 [3, 7]: 0.12 Area %
Imp. 4. rel.tR = 0.52 [3, 7]: 0.12 Area %
Imp. 5. rel.tR = 0.54 [3, 7]: 0.05 Area %
Imp. 6. rel.tR = 0.58 [3, 7]: 0.15 Area %
Imp. 7. rel.tR = 0.71 [3, 7]: 0.34 Area %
Imp. 9. rel.tR = 1.27 [3, 7]: 0.20 Area %
Sum of impurities [3, 7]: 4.59 Area %
impurity Increase compared to initial [3, 7]: +0.98 Area %
*Imp. 8. rel.tR = 0.95 ([3]; Initial API): 3.48 Area %
Imp. 3. rel.tR = 0.48 ([3]; Initial API): 0.13 Area %
Imp. 4. rel.tR = 0.52 ([3]; Initial API): <0.05 Area %
Imp. 7. rel.tR = 0.71 ([3]; Initial API): <0.05 Area %
Sum of impurities ([3]; Initial API): 3.61 Area %
effect of gamma irradiation on the quality of the active ingredient ([3]; standard conditions, dry ice used for cooling): only minor effects
Biopharmaceutics Classification System class [1]: BCS class II
solubility [1]: < 1000 µg/mL

Reference: patent publication US20240009149A1, “NON-AQUEOUS GEL COMPOSITION” (Acousia Therapeutics GmbH, priority 2020, published 2024)
